{"source": "patent US20260317324A1", "about": "“BIFUNCTIONAL COMPOUNDS FOR DEGRADING BRAF VIA UBIQUITIN PROTEOSOME PATHWAY” (Nurix Therapeutics, Inc., priority 2023, published 2026)", "biological_target": "T1, BRAF V600E (Homo sapiens, UniProt P15056, V600E)", "T1 construct": "endogenous C-terminal HiBiT fusion tag on BRAF V600E allele; endogenous in cells; host or cells: A375 clone 1F10 (CRISPR-Cas9 knock-in of the HiBiT tag; parental A375 from ATCC)", "T1 sequence (P15056 whole entry V600E, the tested form may be a part)": "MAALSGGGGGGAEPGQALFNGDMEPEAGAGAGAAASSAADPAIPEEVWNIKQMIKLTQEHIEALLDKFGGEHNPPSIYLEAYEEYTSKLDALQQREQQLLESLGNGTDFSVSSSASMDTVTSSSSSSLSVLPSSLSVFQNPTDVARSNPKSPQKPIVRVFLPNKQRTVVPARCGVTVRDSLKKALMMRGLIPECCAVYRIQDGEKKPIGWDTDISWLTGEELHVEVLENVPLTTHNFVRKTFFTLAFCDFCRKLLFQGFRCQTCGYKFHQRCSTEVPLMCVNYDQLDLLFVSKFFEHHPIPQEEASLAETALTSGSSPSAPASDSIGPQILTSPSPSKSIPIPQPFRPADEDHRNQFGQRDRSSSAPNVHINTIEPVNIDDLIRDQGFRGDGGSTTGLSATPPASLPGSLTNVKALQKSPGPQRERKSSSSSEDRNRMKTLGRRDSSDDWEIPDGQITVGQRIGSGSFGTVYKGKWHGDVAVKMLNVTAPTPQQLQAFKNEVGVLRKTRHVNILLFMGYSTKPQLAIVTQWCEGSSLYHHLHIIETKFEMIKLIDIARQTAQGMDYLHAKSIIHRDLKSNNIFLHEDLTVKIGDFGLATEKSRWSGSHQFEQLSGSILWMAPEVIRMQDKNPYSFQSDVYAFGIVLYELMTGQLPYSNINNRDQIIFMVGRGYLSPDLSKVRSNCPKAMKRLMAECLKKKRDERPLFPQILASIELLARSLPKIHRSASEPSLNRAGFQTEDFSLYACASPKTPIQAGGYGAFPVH", "test": "BRAF HiBiT degradation assay, C-terminal HiBiT-tagged BRAF V600E A375 cells (clone 1F10), Nano-Glo HiBiT Lytic assay", "format": "cell-based", "details": "A375 (BRAF V600E); for DC50: DC50 at 50%: fitted conc. at Y=50; for Dmax: A-375, percentage protein degraded at maximal compound effect relative to DMSO", "outline": "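Steps: seed HiBiT-tagged A375 clone 1F10 cells; incubate 24 h, 37 °C, 5% CO2; add compound (11 half-log points from 1 μM, 0.2% DMSO); lyse with HiBiT detection reagent plus LgBiT for 10 min; read luminescence; fit % protein remaining against concentration.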"}
{"compound": "CCCS(=O)(=O)Nc1cccc(-c2nc(C(C)(C)C)sc2-c2ccnc(Nc3ccc(C4CCN(C(=O)C5CCN(c6ccc7c(c6)C(=O)N(C6CCC(=O)NC6=O)C7=O)CC5)CC4)cc3)n2)c1F", "note": "(racemic) [Compound 155, Rac-N-(3-{2-tert-butyl-5-[2-({4-[1-(1-{2-[(3R)-2,6-dioxopiperidin-3-yl]-1,3-dioxo-2,3-dihydro-1H-isoindol-5-yl}piperidine-4-carbonyl)piperidin-4-yl]phenyl}amino)pyrimidin-4-yl]-1,3-thiazol-4-yl}-2-fluorophenyl)propane-1-sulfonamide]", "values": [{"measurement": "DC50", "result": "50 to 500", "unit": "nM"}, {"measurement": "Dmax", "result": "30 to 70", "unit": "%"}]}
{"compound": "CCCS(=O)(=O)Nc1cccc(-c2nc(C3CCC4(CC3)CCN(C(=O)CN3CCN(CCCc5cccc6c5C(=O)N(C5CCC(=O)NC5=O)C6=O)CC3)CC4)sc2-c2ccnc(N)n2)c1F", "note": "(racemic) [Compound 229, Rac-N-{3-[5-(2-aminopyrimidin-4-yl)-2-(3-{2-[4-(3-{2-[(3R)-2,6-dioxopiperidin-3-yl]-1,3-dioxo-2,3-dihydro-1H-isoindol-4-yl}propyl)piperazin-1-yl]acetyl}-3-azaspiro[5.5]undecan-9-yl)-1,3-thiazol-4-yl]-2-fluorophenyl}propane-1-sulfonamide]", "values": [{"measurement": "DC50", "result": "> 500", "unit": "nM"}, {"measurement": "Dmax", "result": "30 to 70", "unit": "%"}]}
{"compound": "CCCS(=O)(=O)Nc1cccc(-c2cn(-c3ccc(N4CCN(C(=O)C5CCN(c6ccc(C7CCC(=O)NC7=O)cc6)CC5)CC4)cc3)nc2-c2ccncc2)c1F", "note": "(racemic) [Compound 26, Rac-N-[3-(1-{4-[4-(1-{4-[(3R)-2,6-dioxopiperidin-3-yl]phenyl}piperidine-4-carbonyl)piperazin-1-yl]phenyl}-3-(pyridin-4-yl)-1H-pyrazol-4-yl)-2-fluorophenyl]propane-1-sulfonamide]", "values": [{"measurement": "DC50", "result": "50 to 500", "unit": "nM"}, {"measurement": "Dmax", "result": "30 to 70", "unit": "%"}]}
{"compound": "CCCS(=O)(=O)Nc1cccc(-c2nc(C(C)(C)C)sc2-c2ccnc(Nc3cccc(OC4CCN(C(=O)C5CCN(c6cccc(C7CCC(=O)NC7=O)c6)CC5)CC4)c3)n2)c1F", "note": "(racemic) [Compound 99, Rac-N-[3-(2-tert-butyl-5-{2-[(3-{[1-(1-{3-[(3R)-2,6-dioxopiperidin-3-yl]phenyl}piperidine-4-carbonyl)piperidin-4-yl]oxy}phenyl)amino]pyrimidin-4-yl}-1,3-thiazol-4-yl)-2-fluorophenyl]propane-1-sulfonamide]", "values": [{"measurement": "DC50", "result": "10 to 50", "unit": "nM"}, {"measurement": "Dmax", "result": "30 to 70", "unit": "%"}]}
{"compound": "CCCS(=O)(=O)Nc1cccc(-c2nc(C3CCC4(CC3)CN(C(=O)C3CN(C5CCN(c6ccc7c(c6)C(=O)N(C6CCC(=O)NC6=O)C7=O)CC5)C3)C4)sc2-c2ccnc(N)n2)c1F", "note": "(racemic) [Compound 241, Rac-N-{3-[5-(2-aminopyrimidin-4-yl)-2-{2-[1-(1-{2-[(3R)-2,6-dioxopiperidin-3-yl]-1,3-dioxo-2,3-dihydro-1H-isoindol-5-yl}piperidin-4-yl)azetidine-3-carbonyl]-2-azaspiro[3.5]nonan-7-yl}-1,3-thiazol-4-yl]-2-fluorophenyl}propane-1-sulfonamide]", "values": [{"measurement": "DC50", "result": "< 10", "unit": "nM"}, {"measurement": "Dmax", "result": "> 70", "unit": "%"}]}
{"compound": "CCCS(=O)(=O)Nc1cccc(-c2nc(C3CCN(C(=O)C4CCN(C(=O)C5CCN(c6ccc(C7CCC(=O)NC7=O)cc6)CC5)CC4)CC3)sc2-c2ccnc(N)n2)c1F", "note": "(racemic) [Compound 216, Rac-N-{3-[5-(2-aminopyrimidin-4-yl)-2-{1-[1-(1-{4-[(3R)-2,6-dioxopiperidin-3-yl]phenyl}piperidine-4-carbonyl)piperidine-4-carbonyl]piperidin-4-yl}-1,3-thiazol-4-yl]-2-fluorophenyl}propane-1-sulfonamide]", "values": [{"measurement": "DC50", "result": "< 10", "unit": "nM"}, {"measurement": "Dmax", "result": "> 70", "unit": "%"}]}
{"compound": "CCN(C)S(=O)(=O)Nc1cccc(-c2nc(C(C)(C)C)sc2-c2ccnc(Nc3ccc(N4CCN(C(=O)[C@H]5CC[C@H](CN6CCc7ccc(C8CCC(=O)NC8=O)cc7C6)CC5)CC4)cn3)n2)c1F", "note": "(mixture of isomers) [Compound 124, Rac-(3S)-3-(2-{[(1r,4r)-4-{4-[6-({4-[2-tert-butyl-4-(3-{[ethyl(methyl)sulfamoyl]amino}-2-fluorophenyl)-1,3-thiazol-5-yl]pyrimidin-2-yl}amino)pyridin-3-yl]piperazine-1-carbonyl}cyclohexyl]methyl}-1,2,3,4-tetrahydroisoquinolin-7-yl)piperidine-2,6-dione]", "values": [{"measurement": "DC50", "result": "50 to 500", "unit": "nM"}, {"measurement": "Dmax", "result": "30 to 70", "unit": "%"}]}
{"compound": "CCCS(=O)(=O)Nc1cccc(-c2nc(C3CCN(CC4CCN(C(=O)[C@H]5CC[C@H](Oc6cccc(C7CCC(=O)NC7=O)c6)CC5)CC4)CC3)sc2-c2ccnc(N)n2)c1F", "note": "(mixture of isomers) [Compound 223, N-{3-[5-(2-aminopyrimidin-4-yl)-2-[1-({1-[(1r,4r)-4-{3-[(3RS)-2,6-dioxopiperidin-3-yl]phenoxy}cyclohexanecarbonyl]piperidin-4-yl}methyl)piperidin-4-yl]-1,3-thiazol-4-yl]-2-fluorophenyl}propane-1-sulfonamide]", "values": [{"measurement": "DC50", "result": "50 to 500", "unit": "nM"}, {"measurement": "Dmax", "result": "30 to 70", "unit": "%"}]}
{"compound": "CCCS(=O)(=O)Nc1cccc(-c2cn(-c3ccc(N4CCN(CC5CCN(c6ccc([C@@H]7CCC(=O)NC7=O)cn6)CC5)CC4)cc3)nc2-c2ccncc2)c1F", "note": "[Compound 1, N-{3-[1-(4-{4-[(1-{5-[(3S)-2,6-dioxopiperidin-3-yl]pyridin-2-yl}piperidin-4-yl)methyl]piperazin-1-yl}phenyl)-3-(pyridin-4-yl)-1H-pyrazol-4-yl]-2-fluorophenyl}propane-1-sulfonamide]", "values": [{"measurement": "DC50", "result": "10 to 50", "unit": "nM"}, {"measurement": "Dmax", "result": "> 70", "unit": "%"}]}
{"compound": "CCCS(=O)(=O)Nc1cccc(-c2nc(C(C)(C)C)sc2-c2ccnc(Nc3cccc(OC4CCN(CC5CCN(c6ccc7c(=O)n(C8CCC(=O)NC8=O)ccc7c6)CC5)CC4)c3)n2)c1F", "note": "(racemic) [Compound 71, Rac-N-{3-[2-tert-butyl-5-(2-{[3-({1-[(1-{2-[(3R)-2,6-dioxopiperidin-3-yl]-1-oxo-1,2-dihydroisoquinolin-6-yl}piperidin-4-yl)methyl]piperidin-4-yl}oxy)phenyl]amino}pyrimidin-4-yl)-1,3-thiazol-4-yl]-2-fluorophenyl}propane-1-sulfonamide]", "values": [{"measurement": "DC50", "result": "10 to 50", "unit": "nM"}, {"measurement": "Dmax", "result": "30 to 70", "unit": "%"}]}
{"compound": "CCCS(=O)(=O)Nc1cccc(-c2nc(C3CCN(CC4CCN(C(=O)CC5CCN(c6ccc(C7CCC(=O)NC7=O)cn6)CC5)CC4)CC3)sc2-c2ccnc(N)n2)c1F", "note": "(racemic) [Compound 202, Rac-N-{3-[5-(2-aminopyrimidin-4-yl)-2-[1-({1-[2-(1-{5-[(3R)-2,6-dioxopiperidin-3-yl]pyridin-2-yl}piperidin-4-yl)acetyl]piperidin-4-yl}methyl)piperidin-4-yl]-1,3-thiazol-4-yl]-2-fluorophenyl}propane-1-sulfonamide]", "values": [{"measurement": "DC50", "result": "< 10", "unit": "nM"}, {"measurement": "Dmax", "result": "> 70", "unit": "%"}]}
{"compound": "CCCS(=O)(=O)Nc1cccc(-c2nc(C)sc2-c2ccnc(Nc3ccc(C4CCN(CC5CCN(c6ccc([C@@H]7CCC(=O)NC7=O)cc6)CC5)CC4)cc3)n2)c1F", "note": "[Compound 64, N-[3-(5-{2-[(4-{1-[(1-{4-[(3S)-2,6-dioxopiperidin-3-yl]phenyl}piperidin-4-yl)methyl]piperidin-4-yl}phenyl)amino]pyrimidin-4-yl}-2-methyl-1,3-thiazol-4-yl)-2-fluorophenyl]propane-1-sulfonamide]", "values": [{"measurement": "DC50", "result": "10 to 50", "unit": "nM"}, {"measurement": "Dmax", "result": "> 70", "unit": "%"}]}
{"compound": "CCCS(=O)(=O)Nc1cccc(-c2nc(C(C)(C)C)sc2-c2ccnc(Nc3cnn(CC4CCN(CC[C@@H]5CCN(c6ccc(C7CCC(=O)NC7=O)cn6)C5)CC4)c3)n2)c1F", "note": "(mixture of isomers) [Compound 81, N-(3-{2-tert-butyl-5-[2-({1-[(1-{2-[(3R)-1-{5-[(3RS)-2,6-dioxopiperidin-3-yl]pyridin-2-yl}pyrrolidin-3-yl]ethyl}piperidin-4-yl)methyl]-1H-pyrazol-4-yl}amino)pyrimidin-4-yl]-1,3-thiazol-4-yl}-2-fluorophenyl)propane-1-sulfonamide]", "values": [{"measurement": "DC50", "result": "10 to 50", "unit": "nM"}, {"measurement": "Dmax", "result": "> 70", "unit": "%"}]}
{"compound": "CCCS(=O)(=O)Nc1cccc(-c2nc(C(C)(C)C)sc2-c2ccnc(NC3CC4(CCN(CC5CCN(c6ccc([C@H]7CCC(=O)NC7=O)cc6)CC5)CC4)C3)n2)c1F", "note": "[Compound 133, N-(3-{2-tert-butyl-5-[2-({7-[(1-{4-[(3R)-2,6-dioxopiperidin-3-yl]phenyl}piperidin-4-yl)methyl]-7-azaspiro[3.5]nonan-2-yl}amino)pyrimidin-4-yl]-1,3-thiazol-4-yl}-2-fluorophenyl)propane-1-sulfonamide]", "values": [{"measurement": "DC50", "result": "10 to 50", "unit": "nM"}, {"measurement": "Dmax", "result": "30 to 70", "unit": "%"}]}
{"compound": "CCCS(=O)(=O)Nc1cccc(-c2nc(C(C)(C)C)sc2-c2ccnc(Nc3ccc(C4CCN(C(=O)CC5CCN(C6CCN(c7ccc8c(c7)C(=O)N(C7CCC(=O)NC7=O)C8=O)CC6)CC5)CC4)cc3)n2)c1F", "note": "(racemic) [Compound 158, Rac-N-[3-(2-tert-butyl-5-{2-[(4-{1-[2-(1′-{2-[(3R)-2,6-dioxopiperidin-3-yl]-1,3-dioxo-2,3-dihydro-1H-isoindol-5-yl}-[1,4′-bipiperidin]-4-yl)acetyl]piperidin-4-yl}phenyl)amino]pyrimidin-4-yl}-1,3-thiazol-4-yl)-2-fluorophenyl]propane-1-sulfonamide]", "values": [{"measurement": "DC50", "result": "50 to 500", "unit": "nM"}, {"measurement": "Dmax", "result": "30 to 70", "unit": "%"}]}
{"compound": "CCCS(=O)(=O)Nc1cccc(-c2nc(C(C)(C)C)sc2-c2ccnc(Nc3ccc(C4CCN(C(=O)C5CCN(c6ccc(C7CCC(=O)NC7=O)cc6)CC5)CC4)cc3)n2)c1F", "note": "(racemic) [Compound 37, Rac-N-(3-{2-tert-butyl-5-[2-({4-[1-(1-{4-[(3R)-2,6-dioxopiperidin-3-yl]phenyl}piperidine-4-carbonyl)piperidin-4-yl]phenyl}amino)pyrimidin-4-yl]-1,3-thiazol-4-yl}-2-fluorophenyl)propane-1-sulfonamide]", "values": [{"measurement": "DC50", "result": "10 to 50", "unit": "nM"}, {"measurement": "Dmax", "result": "30 to 70", "unit": "%"}]}
